Among the data in US20240383904A1, “HETEROCYCLIC COMPOUNDS” (Hoffmann-La Roche Inc., priority 2021, published 2024) are IC50 values, retold here.

This assay concerns the target T1, MAGL (Homo sapiens, UniProt Q99685).
T1 sequence (Q99685 1-303): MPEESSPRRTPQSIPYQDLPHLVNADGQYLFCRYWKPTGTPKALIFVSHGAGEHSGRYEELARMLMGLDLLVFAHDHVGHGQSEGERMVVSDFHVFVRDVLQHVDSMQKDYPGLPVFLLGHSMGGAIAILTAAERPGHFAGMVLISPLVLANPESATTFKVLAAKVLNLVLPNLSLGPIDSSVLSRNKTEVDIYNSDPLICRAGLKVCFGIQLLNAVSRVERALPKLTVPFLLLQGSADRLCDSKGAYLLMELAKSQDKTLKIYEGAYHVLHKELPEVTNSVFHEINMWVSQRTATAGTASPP
The assay can be described thus: 2-AG assay: MAGL inhibitory activity by hydrolysis of 2-arachidonoylglycerol to arachidonic acid, followed by mass spectrometry. The class given is biochemical. Particulars: 15 min preincubation, 30 min reaction at RT, 8 μM 2-arachidonoylglycerol.
As for `N=S(=O)(c1cccc(OC(F)(F)F)c1)C1CC2(C1)CN(C(=O)N1CC3(CCC(=O)N3)C1)C2` (stereo not shown) [Example 297, 2-[6-[[3-(trifluoromethoxy)phenyl]sulfonimidoyl]-2-azaspiro[3.3]heptane-2-carbonyl]-2,5-diazaspiro[3.4]octan-6-one], 75.9 nM corresponded to half-maximal inhibition (IC50).

Turning to `N=S(=O)(c1cc(F)cc(CC2CC3(C2)CN(C(=O)N2CC4(CCC(=O)N4)C2)C3)c1)C(F)(F)F` (stereo not shown) [Example 298, 2-[6-[[3-fluoro-5-(trifluoromethylsulfoni-midoyl)phenyl]methyl]-2-azaspiro[3.3]heptane-2-carbonyl]-2,5-diazaspiro[3.4]octan-6-one], the IC50 is 0.83 nM.

The molecule `O=C1CCC2(CN(C(=O)N3CC4(CC(Oc5cncc(C(F)(F)F)c5)C4)C3)C2)N1` [Example 299, 2-[6-[[5-(trifluoromethyl)-3-pyridyl]oxy]-2-azaspiro[3.3]heptane-2-carbonyl]-2,5-diazaspiro[3.4]octan-6-one] came in with an IC50 of 63.5 nM.

On to `O=C1CCC2(CN(C(=O)N3CC4(CC(Cn5ncc(C(F)(F)F)n5)C4)C3)C2)N1` [Example 300, 2-[6-[[4-(trifluoromethyl)triazol-2-yl]methyl]-2-azaspiro[3.3]heptane-2-carbonyl]-2,5-diazaspiro[3.4]octan-6-one], for which 47.4 nM corresponded to half-maximal inhibition (IC50).

In turn, `N#Cc1ccc(OC2CC3(C2)CN(C(=O)N2CC4(CCC(=O)N4)C2)C3)cc1C(F)(F)F` [Example 301, 4-[[2-(6-oxo-2,5-diazaspiro[3.4]octane-2-carbonyl)-2-azaspiro[3.3]heptan-6-yl]oxy]-2-(trifluoromethyl)benzoni-trile] yielded an IC50 of 15.4 nM.

On to `N#Cc1ccc(OC2CC3(C2)CN(C(=O)N2CC4(COCC(=O)N4)C2)C3)cc1C(F)(F)F` [Example 302, 4-[[2-(6-oxo-8-oxa-2,5-diazaspiro[3.5]nonane-2-carbonyl)-2-azaspiro[3.3]heptan-6-yl]oxy]-2-(trifluoromethyl)benzoni-trile], for which the half-maximal inhibitory concentration (IC50) is 68.8 nM.

In turn, `O=C1CCC2(CN(C(=O)N3CC4(CC(Oc5ccc(Cl)cn5)C4)C3)C2)N1` [Example 303, 2-[6-[(5-chloro-2-pyridyl)oxy]-2-azaspiro[3.3]heptane-2-carbonyl]-2,5-diazaspiro[3.4]octan-6-one] displayed an IC50 of 35.7 nM.

Take `Cn1cc(C(F)(F)F)c(CC2CC3(C2)CN(C(=O)N2CC4(CCC(=O)N4)C2)C3)n1` [Example 304, 2-[6-[[1-methyl-4-(trifluoromethyl)pyrazol-3-yl]methyl]-2-azaspiro[3.3]heptane-2-carbonyl]-2,5-diazaspiro[3.4]octan-6-one]: inhibition was half-maximal at 3.73 nM (IC50).

Molecule `Cc1nn(C)c(Cl)c1CN1CC2(C1)CN(C(=O)N1CC3(COC(=O)N3)C1)C2` [Example 305, 2-[6-[(5-chloro-1,3-dimethyl-pyrazol-4-yl)methyl]-2,6-diazaspiro[3.3]heptane-2-carbonyl]-7-oxa-2,5-diazaspiro[3.4]octan-6-one] had an IC50 of 20.9 nM.

In the case of `O=C1CCC2(CN(C(=O)N3CC4(CN(Cc5nc(C(F)(F)F)cs5)C4)C3)C2)N1` [Example 306, 2-[6-[[4-(trifluoromethyl)thiazol-2-yl]methyl]-2,6-diazaspiro[3.3]heptane-2-carbonyl]-2,5-diazaspiro[3.4]octan-6-one], the IC50 came out at 287 nM.

On to `N#Cc1cc(OC2CC3(C2)CN(C(=O)N2CC4(CCC(=O)N4)C2)C3)ccc1C(F)(F)F` [Example 307, 5-[[2-(6-oxo-2,5-diazaspiro[3.4]octane-2-carbonyl)-2-azaspiro[3.3]heptan-6-yl]oxy]-2-(trifluoromethyl)benzoni-trile], for which the IC50 stood at 48.1 nM.

Regarding `O=C1CCC2(CN(C(=O)N3CC4(CC(Oc5nc(C(F)(F)F)cs5)C4)C3)C2)N1` [Example 308, 2-[6-[4-(trifluoromethyl)thiazol-2-yl]oxy-2-azaspiro[3.3]heptane-2-carbonyl]-2,5-diazaspiro[3.4]octan-6-one], inhibition was half-maximal at 49 nM (IC50).

The molecule `O=C1CCC2(CN(C(=O)N3CC4(CC(Oc5ccc(F)cn5)C4)C3)C2)N1` [Example 309, 2-[6-[(5-fluoro-2-pyridyl)oxy]-2-azaspiro[3.3]heptane-2-carbonyl]-2,5-diazaspiro[3.4]octan-6-one] displayed an IC50 of 94.9 nM.

Molecule `Cn1cc(OC2CC3(C2)CN(C(=O)N2CC4(CCC(=O)N4)C2)C3)c(C(F)(F)F)n1` [Example 310, 2-[6-[1-methyl-3-(trifluoromethyl)pyrazol-4-yl]oxy-2-azaspiro[3.3]heptane-2-carbonyl]-2,5-diazaspiro[3.4]octan-6-one] gave an IC50 of 76.9 nM.

Turning to `O=C1CCC2(CN(C(=O)N3CC4(CC(Cn5cc(C6(C(F)(F)F)CC6)cn5)C4)C3)C2)N1` [Example 311, 2-[6-[[4-[1-(trifluoromethyl)cyclopro-pyl]pyrazol-1-yl]methyl]-2-azaspiro[3.3]heptane-2-carbonyl]-2,5-diazaspiro[3.4]octan-6-one], the IC50 came to 4.08 nM.

In turn, `O=C1CCC2(CN(C(=O)N3CC4(CC(Cc5cc(C(F)(F)F)ncn5)C4)C3)C2)N1` [Example 312, 2-[6-[[6-(trifluoromethyl)pyrimi-din-4-yl]methyl]-2-azaspiro[3.3]heptane-2-carbonyl]-2,5-diazaspiro[3.4]octan-6-one] returned an IC50 of 54.9 nM.

The molecule `O=C1CCC2(CN(C(=O)N3CC4(CC(Oc5ncc(F)cc5Cl)C4)C3)C2)N1` [Example 313, 2-[6-[(3-chloro-5-fluoro-2-pyridyl)oxy]-2-azaspiro[3.3]heptane-2-carbonyl]-2,5-diazaspiro[3.4]octan-6-one] displayed an IC50 of 27.8 nM.

As to `O=C1CCC2(CN(C(=O)N3CC4(CC(Cc5ccnc(C(F)(F)F)n5)C4)C3)C2)N1` [Example 314, 2-[6-[[2-(trifluoromethyl)pyrimi-din-4-yl]methyl]-2-azaspiro[3.3]heptane-2-carbonyl]-2,5-diazaspiro[3.4]octan-6-one], the IC50 came out at 8.62 nM.

On to `O=C1CCC2(CN(C(=O)N3CC4(CN(Cc5cnc(C(F)(F)F)s5)C4)C3)C2)N1` [Example 315, 2-[6-[[2-(trifluoromethyl)thiazol-5-yl]methyl]-2,6-diazaspiro[3.3]heptane-2-carbonyl]-2,5-diazaspiro[3.4]octan-6-one], for which the 50% inhibitory concentration (IC50) was determined as 206 nM.

Molecule `O=C1CCC2(CN(C(=O)N3CC4(CN(Cc5cn[nH]c5C(F)(F)F)C4)C3)C2)N1` [Example 316, 2-[6-[[5-(trifluoromethyl)-1H-pyrazol-4-yl]methyl]-2,6-diazaspiro[3.3]heptane-2-carbonyl]-2,5-diazaspiro[3.4]octan-6-one] displayed an IC50 of 553 nM.

Molecule `O=C1CCC2(CN(C(=O)N3CC4(CCN(Cc5ccc(C(F)(F)F)nn5)C4)C3)C2)N1` [Example 317, 2-[7-[[6-(trifluoromethyl)pyrida-zin-3-yl]methyl]-2,7-diazaspiro[3.4]octane-2-carbonyl]-2,5-diazaspiro[3.4]octan-6-one] gave an IC50 of 1040 nM.

`O=C1NC2(CO1)CN(C(=O)N1CC3(C1)CN(c1cncc(F)c1)C3)C2` [Example 318, 2-[6-(5-fluoro-3-pyridyl)-2,6-diazaspiro[3.4]heptane-2-carbonyl]-7-oxa-2,5-diazaspiro[3.4]octan-6-one]: 146 nM corresponded to half-maximal inhibition (IC50).

The molecule `O=C1CCC2(CN(C(=O)N3CC4(CC(Cc5nc(C(F)(F)F)cs5)C4)C3)C2)N1` [Example 319, 2-[6-[[4-(trifluoromethyl)thiazol-2-yl]methyl]-2-azaspiro[3.3]heptane-2-carbonyl]-2,5-diazaspiro[3.4]octan-6-one] yielded an IC50 of 12.4 nM.

For the molecule `O=C1CCC2(CN(C(=O)N3CC4(CC(Cc5ccc6ncnn6c5)C4)C3)C2)N1` [Example 320, 2-[6-([1,2,4]triazolo[1,5-a]pyridin-6-ylmethyl)-2-azaspiro[3.3]heptane-2-carbonyl]-2,5-diazaspiro[3.4]octan-6-one], half-maximal inhibition (IC50) was put at 171 nM.

The molecule `O=C1CCC2(CN(C(=O)N3CC4(CC(Cc5ccc6[nH]ncc6n5)C4)C3)C2)N1` [Example 321, 2-[6-(1H-pyrazolo[4,3-b]pyridin-5-ylmethyl)-2-azaspiro[3.3]heptane-2-carbonyl]-2,5-diazaspiro[3.4]octan-6-one] displayed an IC50 of 88.2 nM.

For the molecule `N=S(=O)(c1cc(F)cc(CC2CC3(C2)CN(C(=O)N2CC4(COCC(=O)N4)C2)C3)c1)C(F)(F)F` (stereo not shown) [Example 322, 2-[6-[[3-fluoro-5-(trifluoromethylsulfoni-midoyl)phenyl]methyl]-2-azaspiro[3.3]heptane-2-carbonyl]-8-oxa-2,5-diazaspiro[3.5]nonan-6-one], the IC50 amounted to 4.32 nM.

On to `O=C1CCC2(CN(C(=O)N3CC4(CCC(Cc5nnc(C(F)(F)F)[nH]5)CC4)C3)C2)N1` [Example 323, 2-[7-[[5-(trifluoromethyl)-4H-1,2,4-triazol-3-yl]methyl]-2-azaspiro[3.5]nonane-2-carbonyl]-2,5-diazaspiro[3.4]octan-6-one], for which the IC50 came out at 0.17 nM.

Regarding `O=C1CCC2(CN(C(=O)N3CC4(CC(Cc5cn(C6CC6)nc5C(F)(F)F)C4)C3)C2)N1` [Example 324], 3.35 nM corresponded to half-maximal inhibition (IC50).

Take `Cn1ncc(C(F)(F)F)c1CN1CCC2(CC1)CN(C(=O)N1CC3(CCC(=O)N3)C1)C2` [Example 325, 2-[7-[[2-methyl-4-(trifluoromethyl)pyrazol-3-yl]methyl]-2,7-diazaspiro[3.5]nonane-2-carbonyl]-2,5-diazaspiro[3.4]octan-6-one]: the IC50 turned out to be 3.88 nM.

`Cc1cc(C(F)(F)F)nn1CC1CC2(C1)CN(C(=O)N1CC3(CCC(=O)N3)C1)C2` [Example 326, 2-[6-[[5-methyl-3-(trifluoromethyl)pyrazol-1-yl]methyl]-2-azaspiro[3.3]heptane-2-carbonyl]-2,5-diazaspiro[3.4]octan-6-one]: the IC50 came out at 6.53 nM.

In the case of `O=C1CCC2(CN(C(=O)N3CC4(CC(Cc5nccc(C(F)(F)F)n5)C4)C3)C2)N1` [Example 327, 2-[6-[[4-(trifluoromethyl)pyrimi-din-2-yl]methyl]-2-azaspiro[3.3]heptane-2-carbonyl]-2,5-diazaspiro[3.4]octan-6-one], the midpoint of inhibition, the IC50, lay at 7.57 nM.

Usually IC50 stands for the concentration needed to halve the response being measured.
